The record followed here is patent US20260234173A1, “STRUCTURED MOLECULAR VECTORS FOR ANTI-INFLAMMATORY COMPOUNDS AND USES THEREOF” (Universite Claude Bernard Lyon 1, priority 2019, published 2026).

The test system of this experiment is fully amygdala-kindled rats. Description: Seizure severity in fully amygdala-kindled rats (Racine's scale). Format: in vivo, rat. Here is the method:
All animal procedures were in compliance with the guidelines of the European Union (directive 2010-63), regulating animal experimentation, and have been approved by the ethical committee of the Claude Bernard Lyon 1 University. Male Sprague-Dawley rats (Envigo, France) were used in these experiments. They were housed in a temperature-controlled room (23±1° C.) under diurnal lighting conditions (lights on from 6 a.m to 6 p.m). Rats arrived 15 days prior to the beginning of the experiments. They were maintained in groups of 2 in 800 cm2 plastic cages comprising minimal environmental enrichment (nesting cardboard material, wooden gnowing sticks), and had free access to food and water.
For surgical implantation of kindling electrodes, rats weighing 220-240 g were anesthetized using isoflurane (5% induction; 2% maintenance) and treated with the analgesic drug buprenorphine (0.050 mg/kg, i.m.). Their heads were positioned in a stereotaxic apparatus with the incisor bar set at −3.3 mm. Burr holes were drilled for the placement of three stainless steel jewelers' screws in the left parietal, right frontal and occipital bones, and over the site of implantation of the electrode used for amygdala kindling. This stimulation and recording electrode consisted of a teflon-isolated bipolar stainless-steel electrode aimed at the right basolateral amygdala (stereotaxic coordinates relative to Bregma: anterior-posterior, −2.8 mm; lateral, +4.8 mm; dorso-ventral, −8.5 mm). The screws placed above the parietal cortex and the frontal cortex served as recording electrodes, and the placed above the cerebellum served as grounding. Bipolar, recording and grounding electrodes were connected to a plug anchored to the skull with dental acrylic cement.
Electrical stimulation via the kindling electrode was initiated after a recovery period of 1 week after surgery, and was performed at the same time of the day (between 9:00 and 11:00 A.M. and then between 4:00 and 6:00 P.M.) to avoid intraday variance between animals. Constant current stimulations (500 μA, biphasic square-wave pulses, 50 pulses/s for 2 s) were delivered twice daily until at least 5 fully kindled seizures (secondarily generalized stage 5 seizures) were elicited. Seizure severity was classified behaviorally according to Racine's scale: stage 1, immobility, slight facial clonus (eye closure, twitching of vibrissae, sniffing); stage 2, head nodding associated with more severe facial clonus; stage 3, clonus of one forelimb; stage 4, rearing, often accompanied by bilateral forelimb clonus; stage 5, tonic-clonic seizure accompanied by loss of balance and falling.
To evaluate the effect of SYN-PN on seizure severity, SYN-PN was prepared in saline and injected intraperitoneally at 5, 10 or 50 mg/kg, 45 min prior to electrical stimulation in fully kindled rats. Briefly, the day after the last stage 5 seizure, on day 1, the rats received a first dose of SYN-PN (5 mg/kg) and were stimulated 45 minutes later. At D2 and D5, they were stimulated without SYN-PN injection to evaluate the residual effect of the 5 mg/kg dose. On D6, they received a second dose of SYN-PN (10 mg/kg) and were stimulated 45 minutes later. They were then simulated at D7 and D8 to evaluate the residual effect of the 10 mg/kg dose. On D9, rats received a third dose of SYN-PN (50 mg/kg) and were stimulated 45 minutes later. They were then simulated at D10 and D11 to evaluate the residual effect of the 50 mg/kg dose. Finally, they received 1) a daily dose of SYN-PN at 5 mg/kg from D12 to D15 and were stimulated at D16; 2) a daily dose of SYN-PN at 10 mg/kg from D19 to D22 and were stimulated at D23; and 3) a daily dose of SYN-PN at 20 mg/kg from D26 to D29 and were stimulated at D30. The treatments were then stopped. However, to assess the persistence of the effects of this series of treatments, rats continued to be stimulated at 7, 15, 42 and 56 days after the last treatment at 20 mg/kg.

Regarding `CCC=CCC=CCC=CCC=CCC=CCC=CCCC(=O)NCCP(=O)(O)O` [synaptamide phosphonate], the “rats with absence of seizures 15 days after stopping treatment” value (all rats (n=15)) is on record as 7/15. Besides, the “decrease of mean seizure severity” value (all rats (n=15), D1, 5 mg/kg i.p. 45 min before stimulation) is 19.0±7.9%. Besides, the “seizure severity compared to D0” value (all rats (n=15), D2, day after 5 mg/kg, no injection) was −23.1±8.1%; the “seizure severity compared to D0” value (all rats (n=15), D6, 10 mg/kg i.p. 45 minutes before stimulation) was “not significantly different from that at D0”; the “seizure severity compared to D0” value (all rats (n=15), D16, after daily 5 mg/kg from D12) is given as −42.0±9.2%; the “seizure severity compared to D0” value (all rats (n=15), the next day and the day after 10 mg/kg (D7-D8), at the most) was −39.4±11.1%; the “seizure severity compared to D0” value (rats responding to 5 mg/kg (n=8), D16 after daily 5 mg/kg) is listed as −87.0±13.0%; the “seizure severity compared to D0” value (rats responding to 5 mg/kg (n=8), same day of administration) is given as −36.4±11.7%. Moreover, under “all rats (n=15), D5, no injection”, the “effect of 5 mg/kg on seizure severity at D5” value is listed as “lost”. In addition, for the setting “any dose”, the “delay of the maximum effect on seizure severity after administration” value is 24 to 48 h. Under “decrease in seizure severity first observed at 5 mg/kg i.p.”, the “rats responding to 5 mg/kg” value is 8/15. Further, where the note is “decrease in seizure severity first observed at 10 mg/kg i.p.”, the “rats responding to 10 mg/kg” value is given as 3/15. Where the note is “decrease in seizure severity first observed at 50 mg/kg i.p.”, the “rats responding to 50 mg/kg” value is on record as 4/15. For the same molecule, the “average severity of seizures on increasing the daily dose from 5 to 10, then to 20 mg/kg” value (rats responding to 5 mg/kg, 4 daily doses each) is listed as “did not change the average severity of seizures”. Also, the “rats remaining at stage 0” value (rats responding to 5 mg/kg, D16 after daily 5 mg/kg) is reported as 7/8. For the same molecule, the “rats free from seizures” value was 7/8 (rats responding to 5 mg/kg, after 4 daily doses of 5 mg/kg) and 4/8 (rats responding to 5 mg/kg, after 4 daily doses of 10 mg/kg). For the same molecule, the “decrease of seizure severity compared to D0” value runs as follows: (rats responding to 10 mg/kg (n=3)) “not significantly different from DO”; (rats responding to 50 mg/kg (n=4)) “too variable to observe a significant effect”. Moreover, the “severity reduction at D16” value (rats responding to 10 mg/kg (n=3), after 5 mg/kg for 4 days) is recorded as “maintained”. Further, the “seizure reduction at D16” value (rats responding to 50 mg/kg (n=4), after 5 mg/kg for 4 days) is “only transient and lost at D16”. Moreover, where the note is “rats responding to 50 mg/kg, after high doses (20 mg/kg)”, the “duration of the protective effect against seizures after stopping treatment” value is “up to 15 days”. Moreover, the “persistence of seizure freedom after stopping treatment” value (substantial population of rats) is on record as “free of seizures, even after almost two months of stopping treatment”.
